These results are taken from patent US20040242568A1, “Dipeptidyl peptidase inhibitors” (Syrrx, Inc., priority 2003, published 2004).

This series in a line: Microsomal stability in rat liver microsomes. The following applies: Rat liver microsomes 1 mg/mL protein, 1 μM compound, 37° C., NADPH 4 mM.
Experimental: Several compounds were evaluated for stability in rat liver microsomes.
The test compounds (1 μM) were incubated at 37° C. in phosphate buffer (50 mM, pH 7.4) containing rat liver microsomes (1 mg/mL protein) and NADPH (Nicotinamide Adenine Dinucleotide Phosphate, reduced form) (4 mM). The incubation mixtures were quenched with trichloroacetic acid (0.3 M) over 0, 5, 15, 30 min time-course. Quenched solutions were centrifuged and supernatants were transferred for LC/MS quantitation. The half life of a test compounds was derived from the compound stability curve over the time course.
With `N#Cc1ccccc1Cn1c(N2CCCC(N)C2)nc2ccccc2c1=O` (stereo not drawn) [Example 1, 2-[2-(3-Amino-piperidin-1-yl)-4-oxo-4H-quinazolin-3-ylmethyl]-benzonitrile], the “T1/2” value is 2.5 min. As to `COc1cc2nc(N3CCCC(N)C3)n(Cc3ccccc3C#N)c(=O)c2cc1OC` (stereo not drawn) [Example 2, 2-[2-(3-Amino-piperidin-1-yl)-6,7-dimethoxy-4-oxo-4H-quinazolin-3-ylmethyl]-benzonitrile], the “T1/2” value came to 106.6 min. In the case of `N#Cc1ccccc1Cn1c(N2CCCC(N)C2)nc2ccc(F)cc2c1=O` (stereo not drawn) [Example 6, 2-[2-(3-Amino-piperidin-1-yl)-6-fluoro-4-oxo-4H-quinazolin-3-ylmethyl]-benzonitrile] it was 31 min.
